20 molecules from PubChem BioAssay AID330 (DTP/NCI, 2004) can be followed below.

This assay deals with P388 leukemia ip, CD2F1 mice, survival T/C. Description: NCI In Vivo Anticancer Drug Screen. Data for tumor model P388 Leukemia (intraperitoneal) in CD2F1 (CDF1) mice. Conditions: endpoint: median survival time, higher = longer survival. A digest of the protocol:
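Mice carrying the transplanted tumor received test compound or vehicle. Survival was recorded in each group, and the value is the treated-group measurement divided by that of the vehicle-treated control group.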

Where [1] appears, read: dose: 50.0 mg/kg/injection, schedule: Q01DX009 (ip), vehicle: Klucel (hydroxypropylcellulose) (HPC).
Where [2] appears, read: dose: 100.0 mg/kg/injection, schedule: Q01DX009 (ip), vehicle: Klucel (hydroxypropylcellulose) (HPC).
Where [3] appears, read: dose: 200.0 mg/kg/injection, schedule: Q01DX009 (ip), vehicle: Klucel (hydroxypropylcellulose) (HPC).
Setting [4] is: dose: 60.0 mg/kg/injection, schedule: Q01DX005 (ip), vehicle: saline with Tween-80.
Where [5] appears, read: dose: 120.0 mg/kg/injection, schedule: Q01DX005 (ip), vehicle: saline with Tween-80.
Setting [6] is: dose: 240.0 mg/kg/injection, schedule: Q01DX005 (ip), vehicle: saline with Tween-80.
The mark [7] stands for this setting: dose: 50.0 mg/kg/injection, schedule: Q01DX005 (ip), vehicle: saline with Tween-80.
Setting [8] is: dose: 100.0 mg/kg/injection, schedule: Q01DX005 (ip), vehicle: saline with Tween-80.
Where [9] appears, read: dose: 50.0 mg/kg/injection, schedule: Q01DX005 (ip), vehicle: Klucel (hydroxypropylcellulose) (HPC).
Setting [10] is: dose: 100.0 mg/kg/injection, schedule: Q01DX005 (ip), vehicle: Klucel (hydroxypropylcellulose) (HPC).
Setting [11] is: dose: 200.0 mg/kg/injection, schedule: Q01DX005 (ip), vehicle: Klucel (hydroxypropylcellulose) (HPC).

Values joined by “and” are separate entries in the source; they are usually repeats but may differ in a detail not shown here. Equal entries are not always repeated. Inconclusive results and toxic doses are left out.

Turning to `COc1ccccc1/C=N/Nc1ccc2ccccc2n1`, the T/C by setting is: (dose: 50.0 mg/kg/injection, schedule: Q04DX003 (ip), vehicle: saline with Tween-80) 93 % of control; (dose: 100.0 mg/kg/injection, schedule: Q04DX003 (ip), vehicle: saline with Tween-80) 90 % of control; (dose: 200.0 mg/kg/injection, schedule: Q04DX003 (ip), vehicle: saline with Tween-80) 90 % of control.
For `COc1ccc(C(=S)SCCCC(=O)O)cc1`, the T/C was 102 % of control under setting [1], 98 % of control under setting [2] and 92 % of control under setting [3].
Regarding `COc1ccc(NC(=O)Nc2ccc(C#N)cc2)cc1`, the T/C is 101 % of control under setting [4], 93 % of control under setting [5] and 93 % of control under setting [6].
In the case of `Cc1cc(-c2ccccc2)nc2nc3ccccc3n12`, the T/C by setting is: under setting [4], 105 % of control; under setting [5], 103 % of control; under setting [6], 103 % of control.
With `COc1ccc2c(c1)CCc1nc3n(c1-2)C(O)(c1ccccc1)C(CC(=O)O)S3` (stereo unspecified), the T/C by setting is: under setting [1], 94 % of control; under setting [2], 105 % of control; under setting [3], 103 % of control.
For the molecule `CN(C)c1ccc(C2(c3ccc(N(C)C)cc3)c3ccccc3C(=O)N2N)cc1`, the T/C was 86 % of control under setting [7] and 86 % of control under setting [8].
For `COc1ccc2nc(CC(C)C)c3c(c2c1)-c1ccccc1C3=O`, the T/C reads like this: under setting [9], 91 % of control; under setting [10], 87 % of control; under setting [11], 89 % of control.
As for `Oc1c(Cl)cc(Cl)cc1C=Nc1cc(C(F)(F)F)ccc1N1CCc2ccccc2C1`, the T/C is, setting by setting: (dose: 50.0 mg/kg/injection, schedule: Q01DX009 (ip), vehicle: saline with Tween-80) 98 % of control; (dose: 100.0 mg/kg/injection, schedule: Q01DX009 (ip), vehicle: saline with Tween-80) 95 % of control; (dose: 200.0 mg/kg/injection, schedule: Q01DX009 (ip), vehicle: saline with Tween-80) 96 % of control.
Consider `OC(c1cc(F)c(F)c(F)c1F)(C(F)(F)F)C(F)(F)F`, for which the T/C is, setting by setting: (dose: 100.0 mg/kg/injection, schedule: Q04DX003 (ip), vehicle: suspension in saline) 98 % of control; (dose: 200.0 mg/kg/injection, schedule: Q04DX003 (ip), vehicle: suspension in saline) 104 % of control; (dose: 400.0 mg/kg/injection, schedule: Q04DX003 (ip), vehicle: suspension in saline) 101 % of control.
For `CC(C)C(CC(=O)O)C(=O)O` (stereo unspecified), the T/C runs as follows: under setting [7], 100 % of control; under setting [8], 91 % of control; (dose: 200.0 mg/kg/injection, schedule: Q01DX005 (ip), vehicle: saline with Tween-80) 104 % of control.
With `Nc1ccc(S(=O)(=O)c2ccc(Nc3ccnc4cc(Cl)ccc34)cc2)cc1`, the T/C by setting is: under setting [9], 100 % of control; under setting [10], 92 % of control; under setting [11], 90 % of control.
On to `Cc1cc(NN=O)nc(C)n1`, for which the T/C was 98 % of control (dose: 3.12 mg/kg/injection, schedule: Q01DX009 (ip), vehicle: water); 98 % of control (dose: 6.25 mg/kg/injection, schedule: Q01DX009 (ip), vehicle: water); 98 % of control (dose: 12.5 mg/kg/injection, schedule: Q01DX009 (ip), vehicle: water); 100 % of control and 101 % of control (dose: 25.0 mg/kg/injection, schedule: Q01DX009 (ip), vehicle: water); 104 % of control and 106 % of control (dose: 50.0 mg/kg/injection, schedule: Q01DX009 (ip), vehicle: water); 166 % of control (dose: 200.0 mg/kg/injection, schedule: Q01DX009 (ip), vehicle: water).
As to `CN1C(N)=NC(c2ccccc2)=CC1(C)c1ccccc1` (stereo unspecified), the T/C (dose: 6.25 mg/kg/injection, schedule: Q01DX005 (ip), vehicle: Klucel (hydroxypropylcellulose) (HPC)) is 101 % of control; the T/C (dose: 12.5 mg/kg/injection, schedule: Q01DX005 (ip), vehicle: Klucel (hydroxypropylcellulose) (HPC)) was 99 % of control; the T/C (dose: 25.0 mg/kg/injection, schedule: Q01DX005 (ip), vehicle: Klucel (hydroxypropylcellulose) (HPC)) was 108 % of control.
In the case of `COC1=CC(=O)C([C@@H]2COc3cc(O)ccc3C2)=CC1=O`, the T/C (dose: 3.75 mg/kg/injection, schedule: Q01DX009 (ip), vehicle: Klucel (hydroxypropylcellulose) (HPC)) is 95 % of control; the T/C (dose: 7.5 mg/kg/injection, schedule: Q01DX009 (ip), vehicle: Klucel (hydroxypropylcellulose) (HPC)) is 99 % of control; the T/C (dose: 15.0 mg/kg/injection, schedule: Q01DX009 (ip), vehicle: Klucel (hydroxypropylcellulose) (HPC)) is 95 % of control; the T/C (dose: 30.0 mg/kg/injection, schedule: Q01DX009 (ip), vehicle: Klucel (hydroxypropylcellulose) (HPC)) was 98 % of control.
With `C=C1CCN(c2ccccc2)C1=O`, the T/C (dose: 4.0 mg/kg/injection, schedule: Q01DX009 (ip), vehicle: saline + alcohol) is 107 % of control; the T/C (dose: 8.0 mg/kg/injection, schedule: Q01DX009 (ip), vehicle: saline + alcohol) was 92 % of control; the T/C (dose: 16.0 mg/kg/injection, schedule: Q01DX009 (ip), vehicle: saline + alcohol) was 105 % of control; the T/C (dose: 32.0 mg/kg/injection, schedule: Q01DX009 (ip), vehicle: saline + alcohol) was 101 % of control; the T/C (dose: 64.0 mg/kg/injection, schedule: Q01DX009 (ip), vehicle: saline + alcohol) is 107 % of control.
As to `COC1=CC(=O)C(OC)=C(c2c[nH]c3ccccc23)C1=O`, the T/C is, setting by setting: under setting [4], 95 % of control; under setting [5], 87 % of control; under setting [6], 97 % of control.
As for `Cc1ncc([N+](=O)[O-])n1CCOC(N)=O`, the T/C under setting [1] is 100 % of control, the T/C under setting [2] is 99 % of control and the T/C under setting [3] was 99 % of control.
Take `NC(N)=NS(=O)(=O)c1ccc(NCc2c3ccccc3nc3ccccc23)cc1`: the T/C runs as follows: (dose: 3.12 mg/kg/injection, schedule: Q04DX002 (ip), vehicle: Klucel (hydroxypropylcellulose) (HPC)) 114 % of control; (dose: 12.5 mg/kg/injection, schedule: Q04DX002 (ip), vehicle: Klucel (hydroxypropylcellulose) (HPC)) 165 % of control; (dose: 25.0 mg/kg/injection, schedule: Q04DX002 (ip), vehicle: Klucel (hydroxypropylcellulose) (HPC)) 172 % of control; (dose: 50.0 mg/kg/injection, schedule: Q04DX002 (ip), vehicle: Klucel (hydroxypropylcellulose) (HPC)) 166 % of control; (dose: 50.0 mg/kg/injection, schedule: Q04DX003 (ip), vehicle: Klucel (hydroxypropylcellulose) (HPC)) 151 % of control and 156 % of control; (dose: 100.0 mg/kg/injection, schedule: Q04DX002 (ip), vehicle: Klucel (hydroxypropylcellulose) (HPC)) 174 % of control. The T/C reads like this: (dose: 100.0 mg/kg/injection, schedule: Q04DX003 (ip), vehicle: Klucel (hydroxypropylcellulose) (HPC)) 168 % of control and 169 % of control; (dose: 200.0 mg/kg/injection, schedule: Q04DX002 (ip), vehicle: Klucel (hydroxypropylcellulose) (HPC)) 151 % of control; (dose: 200.0 mg/kg/injection, schedule: Q04DX003 (ip), vehicle: Klucel (hydroxypropylcellulose) (HPC)) 174 % of control and 180 % of control; (dose: 400.0 mg/kg/injection, schedule: Q04DX002 (ip), vehicle: Klucel (hydroxypropylcellulose) (HPC)) 169 % of control; (dose: 400.0 mg/kg/injection, schedule: Q04DX003 (ip), vehicle: Klucel (hydroxypropylcellulose) (HPC)) 155 % of control and 202 % of control and 207 % of control; (dose: 800.0 mg/kg/injection, schedule: Q04DX002 (ip), vehicle: Klucel (hydroxypropylcellulose) (HPC)) 161 % of control. Under “dose: 800.0 mg/kg/injection, schedule: Q04DX003 (ip), vehicle: Klucel (hydroxypropylcellulose) (HPC)”, the T/C was 162 % of control and 210 % of control and 250 % of control.
In the case of `Sc1ccccc1N=Cc1cccs1`, the T/C was 90 % of control (dose: 50.0 mg/kg/injection, schedule: Q01DX009 (ip), vehicle: saline); 99 % of control (dose: 100.0 mg/kg/injection, schedule: Q01DX009 (ip), vehicle: saline); 96 % of control (dose: 200.0 mg/kg/injection, schedule: Q01DX009 (ip), vehicle: saline).
On to `CC1(O)C=CC(=O)C=C1`, for which the T/C was 103 % of control (dose: 1.56 mg/kg/injection, schedule: Q01DX009 (ip), vehicle: distilled water + Tween-80); 102 % of control (dose: 3.13 mg/kg/injection, schedule: Q01DX009 (ip), vehicle: distilled water + Tween-80); 109 % of control (dose: 6.25 mg/kg/injection, schedule: Q01DX009 (ip), vehicle: distilled water + Tween-80); 109 % of control (dose: 12.5 mg/kg/injection, schedule: Q01DX009 (ip), vehicle: distilled water + Tween-80).
